Counter-ions that a name gives are not always drawn. Like-named read-outs stand apart in the source and are kept apart here.
Legend:
human NTCP [1] = target: T1, human NTCP (Homo sapiens, UniProt Q14973); experiment: Screening taurocholate uptake assay (96-well, [14C]taurocholate, 10 µM drug)
T1 sequence (Q14973 1-349): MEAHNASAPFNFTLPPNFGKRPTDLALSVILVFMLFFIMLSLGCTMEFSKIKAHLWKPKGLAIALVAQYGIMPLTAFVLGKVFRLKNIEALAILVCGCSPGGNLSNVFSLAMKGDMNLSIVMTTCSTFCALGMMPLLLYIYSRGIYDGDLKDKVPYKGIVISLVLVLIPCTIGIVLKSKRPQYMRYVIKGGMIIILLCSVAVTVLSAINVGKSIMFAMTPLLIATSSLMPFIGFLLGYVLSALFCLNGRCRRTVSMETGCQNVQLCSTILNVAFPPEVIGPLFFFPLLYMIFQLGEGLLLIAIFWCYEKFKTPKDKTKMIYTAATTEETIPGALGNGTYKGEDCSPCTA

human NTCP [2] = target: T1, human NTCP; experiment: Screening fluorescent competitive Myrcludex B-FITC binding assay (96-well, 10 µM drug)
[3] = Prestwick library screen, 10 µM drug, B-score of taurocholate uptake
[4] = combined ranking from functional and binding assay B-scores
[5] = Prestwick library screen, 10 µM drug, B-score of Myrcludex B-FITC binding
[6] = Prestwick library screen, taurocholate uptake, 10 µM drug
[7] = ranking score beside the functional and binding assay B-scores of the screen
[8] = Prestwick library screen, Myrcludex B-FITC binding, 10 µM drug
[9] = combined ranking from functional and binding screening assays
[10] = screen, 10 µM drug, taurocholate uptake
[11] = screen, 10 µM drug, Myrcludex B-FITC binding

Row | Structure (SMILES) | B-score functional assay (human NTCP [1]; [3]) | Ranking score (human NTCP [1]; [4]) | B-score binding assay (human NTCP [2]; [5]) | B-score functional assay (human NTCP [1]; [6]) | Ranking score (human NTCP [1]; [7]) | B-score binding assay (human NTCP [2]; [8]) | also measured
1 | NC[C@H]1O[C@H](O[C@H]2[C@H](O[C@@H]3O[C@H](CO)[C@@H](O)[C@H]3O)[C@@H](O)[C@H](N)C[C@@H]2N)[C@H](N)[C@@H](O)[C@@H]1O.O=S(=O)(O)O [Ribostamycin sulfate salt] | 0.797 | 1035.72 | 1.097 |  |  |  | 
2 | CO[C@H]1/C=C/O[C@@]2(C)Oc3c(C)c(O)c4c(c3C2=O)C2=NC3(CCN(CC(C)C)CC3)NC2=C(NC(=O)/C(C)=C\C=C\[C@H](C)[C@H](O)[C@@H](C)[C@@H](O)[C@@H](C)[C@H](OC(C)=O)[C@@H]1C)C4=O [Rifabutin] |  |  |  | 1.309 | 731.029 | -0.23 | 
3 | CC(N)C12CC3CC(CC(C3)C1)C2 (stereo not drawn) [Rimantadine Hydrochloride] |  |  |  | 0.074 | 753.923 | 0.171 | 
4 | CCC(=O)[C@@]1(C)[C@H](C)C[C@H]2[C@@H]3CCC4=CC(=O)C=C[C@]4(C)[C@H]3[C@@H](O)C[C@@]21C [Rimexolone] |  |  |  |  |  |  | Ranking score (human NTCP [1]; [9]): 362.647; B-score functional assay (human NTCP [1]; [10]): -0.597; B-score binding assay (human NTCP [2]; [11]): -0.495
5 | O.O=P(O)(O)C(O)(Cc1cccnc1)P(=O)(O)O [Risedronic acid monohydrate] | 1.315 | 1045.06 | 0.727 |  |  |  | 
6 | Cc1nc2n(c(=O)c1CCN1CCC(c3noc4cc(F)ccc34)CC1)CCCC2 [Risperidone] | 0.025 | 888.472 | 1.724 |  |  |  | 
7 | CC(NCCc1ccc(O)cc1)C(O)c1ccc(O)cc1 (stereo not drawn) [Ritodrine hydrochloride] | 1 | 1111.92 | 1.66 |  |  |  | 
8 | CN(C)CCc1c[nH]c2ccc(Cn3cncn3)cc12 [Rizatriptan benzoate] |  |  |  | -0.205 | 781.971 | 3.436 | 
9 | COc1ccc(C2CNC(=O)C2)cc1OC1CCCC1 (stereo not drawn) [Rolipram] | 0.524 | 872.569 | 0.265 |  |  |  | 
10 | Cn1c([N+](=O)[O-])cnc1COC(N)=O [Ronidazole] |  |  |  |  |  |  | Ranking score (human NTCP [1]; [9]): 432.42; B-score functional assay (human NTCP [1]; [10]): -0.446; B-score binding assay (human NTCP [2]; [11]): -0.252
11 | CCCN(CCC)CCc1cccc2c1CC(=O)N2 [Ropinirole HCl] |  |  |  | -0.072 | 825.121 | 2.082 | 
12 | CC(=O)OCC(=O)NCCCOc1cccc(CN2CCCCC2)c1 [Roxatidine Acetate HCl] |  |  |  |  |  |  | Ranking score (human NTCP [1]; [9]): 297.686; B-score functional assay (human NTCP [1]; [10]): -2.305; B-score binding assay (human NTCP [2]; [11]): 0.239
13 | OCc1cc(C(O)CNCCCCCCOCCCCc2ccccc2)ccc1O (stereo not drawn) [Salmeterol] |  |  |  |  |  |  | Ranking score (human NTCP [1]; [9]): 391.804; B-score functional assay (human NTCP [1]; [10]): 0.004; B-score binding assay (human NTCP [2]; [11]): -0.999
14 | O=C(O)c1cn(-c2ccc(F)cc2)c2cc(N3CCNCC3)c(F)cc2c1=O [Sarafloxacin] |  |  |  |  |  |  | Ranking score (human NTCP [1]; [9]): 305.771; B-score functional assay (human NTCP [1]; [10]): -0.49; B-score binding assay (human NTCP [2]; [11]): -0.967
15 | Clc1ccc(C(Cn2ccnc2)OCc2csc3c(Cl)cccc23)c(Cl)c1 (stereo not drawn) [Sertaconazole nitrate] |  |  |  | -0.094 | 730.855 | 0.814 | 
16 | O=C1NCCN1CCN1CCC(c2cn(-c3ccc(F)cc3)c3ccc(Cl)cc23)CC1 [Sertindole] | 0.957 | 1028.08 | 0.84 |  |  |  | 
17 | CN[C@H]1CC[C@@H](c2ccc(Cl)c(Cl)c2)c2ccccc21 [Sertraline] |  |  |  |  |  |  | Ranking score (human NTCP [1]; [9]): 426.035; B-score functional assay (human NTCP [1]; [10]): 0.805; B-score binding assay (human NTCP [2]; [11]): -1.357
18 | CCCc1nn(C)c2c(=O)[nH]c(-c3cc(S(=O)(=O)N4CCN(C)CC4)ccc3OCC)nc12 [Sildenafil] |  |  |  | 0.011 | 755.751 | 0.383 | 

Row | Structure (SMILES) | B-score functional assay (human NTCP [1]; [3]) | Ranking score (human NTCP [1]; [4]) | B-score binding assay (human NTCP [2]; [5]) | B-score functional assay (human NTCP [1]; [6]) | Ranking score (human NTCP [1]; [7]) | B-score binding assay (human NTCP [2]; [8]) | also measured
19 | CN[C@@H]1[C@@H](O)[C@@H](O[C@@H]2[C@@H](O)[C@H](O[C@H]3OC(CN)=CC[C@H]3N)[C@@H](N)C[C@H]2N)OC[C@]1(C)O [Sisomicin sulfate] | 1.589 | 1018.48 | 0.455 |  |  |  | 
20 | CC(C)NCC(O)c1ccc(NS(C)(=O)=O)cc1 (stereo not drawn) [Sotalol hydrochloride] | 0.17 | 866.77 | 0.649 |  |  |  | 
21 | CC(=O)N[C@@H](CC(=O)N[C@@H](CCC(=O)O)C(=O)O)C(=O)O [Spaglumic acid] |  |  |  |  |  |  | Ranking score (human NTCP [1]; [9]): 411.514; B-score functional assay (human NTCP [1]; [10]): -0.043; B-score binding assay (human NTCP [2]; [11]): -0.793
22 | CC(=O)S[C@@H]1CC2=CC(=O)CC[C@]2(C)[C@H]2CC[C@@]3(C)[C@@H](CC[C@@]34CCC(=O)O4)[C@H]12 [Spironolactone] |  |  |  | -0.089 | 751.977 | 0.972 | 
23 | C[C@]12Cc3c[nH]nc3C[C@@H]1CC[C@@H]1[C@@H]2CC[C@@]2(C)[C@H]1CC[C@]2(C)O [Stanozolol] |  |  |  |  |  |  | B-score functional assay (human NTCP [1]): -1.951; Ranking score (human NTCP [1]): 107.121; B-score binding assay (human NTCP [2]): -2.248
24 | Cc1cn([C@H]2C=C[C@@H](CO)O2)c(=O)[nH]c1=O [Stavudine] | 0.865 | 957.909 | 0.431 |  |  |  | 
25 | CC1(C)[C@H](C(=O)O)N2C(=O)C[C@H]2S1(=O)=O [Sulbactam] |  |  |  |  |  |  | Ranking score (human NTCP [1]; [9]): 399.332; B-score functional assay (human NTCP [1]; [10]): 1.339; B-score binding assay (human NTCP [2]; [11]): -1.629
26 | Nc1ccc(S(=O)(=O)Nc2ncccn2)cc1 [Sulfadiazine] | 0.878 | 1074.81 | 1.389 |  |  |  | 
27 | COc1cc(NS(=O)(=O)c2ccc(N)cc2)nc(OC)n1 [Sulfadimethoxine] |  |  |  | 0.762 | 733.169 | -0.117 | 
28 | COc1ncnc(NS(=O)(=O)c2ccc(N)cc2)c1OC [Sulfadoxine] | 0.522 | 887.31 | 0.336 |  |  |  | 
29 | [H]/N=C(/N)NS(=O)(=O)c1ccc(N)cc1 [Sulfaguanidine] |  |  |  | -0.516 | 669.134 | 2.333 | 
30 | Cc1ccnc(NS(=O)(=O)c2ccc(N)cc2)n1 [Sulfamerazine] | 1.015 | 923.898 | 0.205 |  |  |  | 
31 | Cc1cc(C)nc([N-]S(=O)(=O)c2ccc(N)cc2)n1.[Na+] [Sulfamethazine sodium salt] |  |  |  | 0.394 | 760.788 | 0.015 | 
32 | Cc1nnc(NS(=O)(=O)c2ccc(N)cc2)s1 [Sulfamethizole] | 1.973 | 1054.65 | 0.555 |  |  |  | 
33 | COc1ccc(NS(=O)(=O)c2ccc(N)cc2)nn1 [Sulfamethoxypyridazine] | 0.331 | 989.975 | 1.584 |  |  |  | 
34 | COc1cc(NS(=O)(=O)c2ccc(N)cc2)ncn1 [Sulfamonomethoxine] |  |  |  | -0.097 | 680.363 | 0.362 | 
35 | Nc1ccc(S(N)(=O)=O)cc1 [Sulfanilamide] |  |  |  |  |  |  | Ranking score (human NTCP [1]; [9]): 381.13; B-score functional assay (human NTCP [1]; [10]): 1.042; B-score binding assay (human NTCP [2]; [11]): -1.742

From article PMC5681660, “Reduced hepatitis B and D viral entry using clinically applied drugs as novel inhibitors of the bile acid transporter NTCP” (Scientific Reports, 2017)
